Data taken from patent publication US7101677B1, “Receptor assay” (University Court of the University of Glasgow, priority 1999, dated 2006).
Positions count from the first letter of the chain named.

Columns and labels:
[1] = target: T1, 3CAM hamster α1b-adrenoceptor/GFP fusion construct (Mesocricetus auratus, UniProt P18841, A293L/K290H/R288K); test: Confocal microscopy, 3CAM α1b-adrenoceptor-GFP; assay type: cell-based; settings: 1 μM for 24h
T1 construct: expressed in transfected cells
T1 sequence (P18841 1-515 R288K/K290H/A293L): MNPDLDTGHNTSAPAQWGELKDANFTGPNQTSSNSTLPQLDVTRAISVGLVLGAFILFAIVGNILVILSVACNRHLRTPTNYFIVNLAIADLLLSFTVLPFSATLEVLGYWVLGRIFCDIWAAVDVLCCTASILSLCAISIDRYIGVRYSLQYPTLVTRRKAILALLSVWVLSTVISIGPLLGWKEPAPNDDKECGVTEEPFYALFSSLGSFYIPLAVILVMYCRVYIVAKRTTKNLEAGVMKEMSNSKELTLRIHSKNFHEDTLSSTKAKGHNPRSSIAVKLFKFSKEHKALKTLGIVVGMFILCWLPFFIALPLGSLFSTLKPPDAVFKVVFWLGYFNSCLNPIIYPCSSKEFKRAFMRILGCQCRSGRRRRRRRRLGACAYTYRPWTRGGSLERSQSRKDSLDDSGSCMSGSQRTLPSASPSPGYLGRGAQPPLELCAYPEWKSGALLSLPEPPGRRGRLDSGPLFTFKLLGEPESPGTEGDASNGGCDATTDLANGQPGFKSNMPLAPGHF
Description: (§1) Cells expressing either the 3CAM (10A) or wild type (10B) hamster α1b-adrenoceptor grown on glass cover slips were treated with vehicle (a), phentolamine (b), WB4101 (c) or HV723 (d) (all at 1 μM) for 24h. The cells were then visualised on a confocal microscope.
(§2) The images were manipulated with Zeiss LSM or MetaMorph software. Two different protocols for preparation of cells were used. When examining the time course of internalisation and recycling live cells were used. Cells were grown on glass coverslips and mounted on the imaging chamber. Cells were maintained in KRH buffer (see below) and temperature was maintained at 37° C. In other studies fixed cells were used. Cells on glass coverslips were washed with PBS and fixed for 20 min at room temperature using 4% paraformaldehyde in PBS/5% sucrose pH 7.2. After one wash with PBS coverslips were mounted on microscope slides with 40% glycerol in PBS.
(§3) In the first step the coding sequence of a modified form of GFP was modified by polymerase chain reaction (PCR) amplification. Using the amino-terminal primer 5′-[…]-3 the initiating Met of GFP was removed and both a Kpn I restriction site (underlined) and a 2-amino acid spacer (Gly-Asn) were introduced. Using the carboxy-terminal primer 5-[…]-3′ an Xba I restriction site (underlined) was introduced downstream of the stop codon of GFP. The amplified fragment of GFP digested with Kpn I and Xba I was subcloned into similarly digested pcDNA3 expression vector (Invitrogen). To obtain the α1B-adrenoceptor-GFP fusion proteins, the coding sequence of each form of the α1B-adrenoceptor was amplified by PCR. Using the amino-terminal primer 5′-[…]-3′, a Kpn I restriction site (underlined) was introduced upstream of the initiator Met. […] Finally, the GFP construct in pcDNA3 was digested with Kpn I and ligated together with the PCR product of the α1B-adrenoceptor amplification also digested with Kpn I. The open reading frames so produced represent the coding sequence of either the wild type or 3CAM α1B-adrenoceptor-GFPs. […]

[2] = target: T2, CAM α1b-adrenoceptor/GFP fusion protein (Mesocricetus auratus, UniProt P18841, A293L/K290H/R288K); test: Plate fluorimetry, CAM α1b-adrenoceptor/GFP in HEK 293 cells; assay type: cell-based, hamster; settings: 22 hrs treatment, range in brackets, read-out: EC50 of up-regulation of fluorescence of CAM α1b-adrenoceptor/GFP
T2 construct: expressed in transfected cells
T2 sequence (P18841 1-515 R288K/K290H/A293L): T1 sequence (P18841 1-515 R288K/K290H/A293L)
Description: These cell lines were used to investigate ligand up-regulation of the CAM α1b-adrenoceptor/GFP fusion protein. Fusion protein upregulation was measured according to a gain in total cellular fluorescence in a plate based fluorimeter.
For experiments cells were seeded into black 96 well view plates (Costar) on the day before assay. […] Cells were incubated at 37° C. for 22 hours. After incubation fluorescence was detected using a Tecan Spectrafluor plus fluorimeter. To control for plate and media autofluorescence results were calculated by subtracting a blank plate reading from the fluorescence values obtained in drug treated cells.
The time course of ligand up-regulation of the CAM α1b-adrenoceptor/GFP fusion protein was also investigated. In this study cells were seeded and treated with drug as previously described but fluorescence in the blank plate and the cell plates were read at various time points between 2–31 hours after drug addition.

[3] = target: T3, wild type hamster α1b-adrenoceptor/GFP fusion construct (Mesocricetus auratus, UniProt P18841); test: Confocal microscopy, wild type α1b-adrenoceptor-GFP; assay type: cell-based; settings: 1 μM for 24h
T3 construct: expressed in transfected cells
T3 sequence (P18841 1-515): T1 sequence (P18841 1-515 R288K/K290H/A293L) with K288R, H290K, L293A
Description: as §1, §2, §3

CAM β2-adrenoceptor-GFP = target: T4, CAM β2-adrenoceptor-GFP (Homo sapiens, UniProt P07550, H269K/K267R/L266S/L272A); test: Confocal microscopy of CAM β2-adrenoceptor-GFP in HEK293 cells; assay type: cell-based; settings: 24h, 10^−5 M
T4 construct: GFP (modified form, Zernicka-Goetz et al. 1997); expressed in transfected cells

3CAM α1b-adrenoceptor = target: T5, 3CAM α1b-adrenoceptor (Mesocricetus auratus, UniProt P18841, A293L/K290H/R288K); test: [3H]prazosin specific binding to membranes after ligand treatment, 3CAM; assay type: cell-based, hamster; settings: FIG. 10C; [3H]prazosin 2 nM
T5 construct: expressed in transfected cells
T5 sequence (P18841 1-515 R288K/K290H/A293L): T1 sequence (P18841 1-515 R288K/K290H/A293L)
Description: (§4) Equivalent studies were performed on plates of cells which were then washed and harvested. Membranes were prepared and the specific binding capacity of a single concentration (2 nM) of [^3H]prazosin was then assessed (FIG. 10C).
(§5) HEK293 cells stably expressing each of the α1B-adrenoceptor-GFP fusion proteins were grown to confluence on 6 cm dishes. Prior to harvesting, cells were washed twice with 4 ml of ice-cold TE buffer (10 mM Tris, 0.1 mM EDTA pH 7.5) and then scraped into 1 ml of the same buffer. […] The suspension was centrifuged at 16000×g for 15 min and the resulting pellets resuspended in ice-cold TE buffer to final protein concentrations of 0.035–0.16 mg/ml.

[4] = target: T6, wild-type α1b-adrenoceptor (Mesocricetus auratus, UniProt P18841); test: [3H]prazosin specific binding to membranes after ligand treatment, wild type; assay type: cell-based, hamster; settings: FIG. 10C; [3H]prazosin 2 nM
T6 construct: expressed in transfected cells
T6 sequence (P18841 1-515): T1 sequence (P18841 1-515 R288K/K290H/A293L) with K288R, H290K, L293A
Description: as §4, §5

[5] = target: T7, PAR1mut/GFP fusion protein (Homo sapiens, UniProt P25116, A405G/G401A/L403A/M404G/N398G/Q402G/S399A/S400G/S406A/Y397A); test: Agonist mediated down-regulation of PAR1mut/GFP in plate fluorimeter; assay type: cell-based; settings: 4 hours incubation
T7 construct: expressed in transfected cells
T7 sequence (P25116 22-425 Y397A/N398G/S399A/S400G/G401A/Q402G/L403A/M404G/A405G/S406A): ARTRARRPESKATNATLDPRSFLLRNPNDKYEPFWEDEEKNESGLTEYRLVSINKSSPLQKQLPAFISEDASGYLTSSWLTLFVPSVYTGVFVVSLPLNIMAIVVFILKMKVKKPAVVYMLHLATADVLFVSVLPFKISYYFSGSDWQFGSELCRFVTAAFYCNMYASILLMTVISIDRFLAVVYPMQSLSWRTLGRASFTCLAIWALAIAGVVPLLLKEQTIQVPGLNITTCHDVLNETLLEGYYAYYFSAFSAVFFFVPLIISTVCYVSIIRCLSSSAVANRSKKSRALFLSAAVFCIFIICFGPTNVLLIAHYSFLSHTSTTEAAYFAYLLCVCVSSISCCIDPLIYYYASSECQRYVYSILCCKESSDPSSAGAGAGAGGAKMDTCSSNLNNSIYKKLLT
Description: PAR1 receptor internalisation occurs through two mechanisms. […] This […] in the wild type receptor with the sequence […] (Shapiro and Coughlin, 1998). […] Cells were seeded into black 96 well view plates (Costar) the day before the experiment. The growth media was replaced with phenol red free DMEM/F12 (1:1) media containing 2 mM L-glutamine and either TRAP (10 μM-1 nM) or thrombin (1-0.0001 units/ml). The media also contained 0.5 mM Brilliant Black dye to absorb any media associated autofluorescence. […] To control for plate and media autofluorescence results were calculated by subtracting a blank plate reading from the fluorescence values obtained in drug treated cells.

upregulation of fluorescence of 3CAM α1b-adrenoceptor/GFP (confocal) [1]	EC50 [2] [nM]	upregulation of wild type α1b-adrenoceptor/GFP (confocal) [3]	upregulation of fluorescence of CAM β2-adrenoceptor-GFP (confocal) (CAM β2-adrenoceptor-GFP)	Molecule	also measured
Upregulation of the 3CAM	417	not wild type		CCC(C#N)(CCCNCCOc1ccccc1OC)c1cc(OC)c(OC)c(OC)c1 (stereo not drawn) [HV 723]	
Upregulation of the 3CAM	676	not wild type		COc1cccc(OC)c1OCCNCC1COc2ccccc2O1 (stereo not drawn) [WB 4101]	
			Upregulation of fluoresence	CCCc1ccccc1OCC(O)CNC(C)C (stereo not drawn) [dihydroalprenolol]	
Upregulation of the 3CAM	170	not wild type		Cc1ccc(N(CC2=NCCN2)c2cccc(O)c2)cc1 [phentolamine]	
			not recorded	COc1cc2nc(N3CCN(C(=O)c4ccco4)CC3)nc(N)c2cc1OC [prazosin]	effect on 3CAM α1b-adrenoceptor level ([3H]prazosin specific binding) (3CAM α1b-adrenoceptor): upregulation; effect on wild-type α1b-adrenoceptor level ([3H]prazosin specific binding) [4]: no effect
			not recorded	COC(=O)[C@@H]1[C@H]2C[C@H]3c4[nH]c5ccccc5c4CCN3C[C@@H]2CC[C@@H]1O [yohimbine]	
				thrombin	maximum decrease (loss) in fluorescence of PAR1 mut/GFP construct [5]: about 5%
